Patent US20230103965A1, “NOVEL ACTIVATORS OF THE LIPIDATING TRANSPORTER ATP BINDING CASSETTE PROTEIN TYPE 1 (AB-CA1) AND THERAPEUTIC USES THEREOF” (RAMOT AT TEL-AVIV UNIVERSITY LTD., priority 2020, published 2023)
pEC50, pKd: −log10 of the molar value.

Columns and labels:
[1] = system: apoE4 astrocytic cell line; assay: Cellular viability / cytotoxicity of the hits; type: cell-based, Rodent; settings: 50 μM
Procedure: FIG. 10: Effects of test compounds (HTS hits) on cellular viability. Experiments were performed on apoE4 astrocytic cell line in the presence of 50 μM of the indicated compounds. Viability was measured microscopically and by measurements of total cellular protein. (ii) Measurements of cytotoxicity of the hits.

Human Astrocytes = assay: Cholesterol efflux (apoE4 lipidation) assay, BODIPY-cholesterol translocation to apoE4; type: cell-based; settings: Astrocyte, Human astrocytes, efflux to apoE4; for pEC50: Table 4
Procedure: Cholesterol efflux assay in HTS. CCF-STTG1 cells were plated in 384-well plates containing 50 μL/well RPMI supplemented with 10% FBS at a density of 5×10^3 cells/well, using a Multidrop 384 Reagent Dispenser (Thermo Scientific), and incubated for 48 hr. Cells were washed twice with 50 μl PBS using an EL406 Microplate Washer Dispenser (BioTek, Winooski, Vt., USA) before being labeled with 50 μl of 10 μM BODIPY-cholesterol+100 μM cyclodextrin (CD) in RPMI 1640 medium containing 0.2% BSA. The labeling medium was added using in a Washer Dispenser II (GNF, San Diego, Calif., USA). Plates were transferred automatically to a Liconic incubator (Mauren Principality of Liechtenstein) and incubated for 24 h. Subsequently, cells were washed twice as described above to remove external cholesterol. Next, 50 μl of the efflux medium was added, which contained recombinant apoE4 at a concentration of 40 μg/ml in transparent RPMI 1640 (no phenol red), again using Washer Dispenser II (GNF, San Diego, Calif., USA). The positive control contained the ABCA1 activator, CS-6253 (120 μg/ml) in addition to the acceptor (apoE4). After 7 hr of efflux, the medium was transferred to new plates, using the Bravo Automated Liquid Handling system (Agilent, Santa Clara, Calif., USA). Fluorescence polarization (FP) and fluorescence intensity (FI) of the medium were measured in a PheraStar FS plate reader (BMG Labtech, Ortenberg, Germany).
The apoE4 lipidation Assay is based on measurements of the ability of astrocytes to translocate fluorescently labelled cholesterol to recombinant non lipidated apoE4 and on the extent to which this effect is enhanced by treatment with each of the screened compounds (FIG. 2, 3). This assay is an adaptation of previous studies of cholesterol translocation from labelled astrocytes to external acceptors such as apoE4 [16], except that in order to differentiate between gene expression related effects and direct biochemical effects of the hits on ABCA1, the incubations of the HTS with the cells was limited to 8 hours. The extent to which the cells secret the labelled cholesterol and transfer it to non-lipidated apoE4 was determined by regular fluorescence as well as by fluorescence polarization microscopy. The latter technique in this context is used due to its sensitivity to particle size which decreases the background signal by differentiating between free and particle bound released cholesterol.
The assay was characterized biochemically and it was shown that translocation of labelled cholesterol to apoE4 is time and concentration dependent (FIG. 4) and was increased by the positive control ABCA1 agonistic 26mer peptide CS-6253 [4] (FIG. 5). The assay was used for high throughput screening (HTS) and selection of positive hits. 50,000 compounds from commercially available libraries were screened utilizing the double criteria of a signal greater than 3 standard deviations from the mean of all of the screened compounds, and being similar or greater than the apoE4 lipidation driven by the ABCA1 agonistic peptide CS-6253. Additional criteria included the tier drug ability value with tier 1 being best and tier 3 being least suitable, as well as a hydrophobicity value of 2<log P<5 value. This yielded 14 hits, designated Compounds #1-#14 (FIG. 6).

Rodent Astrocytes = assay: In situ Aβ plaque digestion by apoE4 astrocytes (orthogonal assay); type: cell-based
Procedure: FIG. 7: Schematic representation of assay measuring in situ A$ plaque degradation by apoE3 and apoE4 astrocytes. The assay is designed to measure the ability of astrocytes to digest senile plaques from brain slides of APP mice, which is impaired in apoE4 expressing astrocytes.
FIG. 9: Activity of test compounds (HTS hits) in the plaque digestion assay. Positive control is CS-6253 (25 μg/ml). Test compound concentration is 50 μM.
In situ Aβ plaque degradation by apoE3 and apoE4 astrocytes. This assay is based on measurement of the ability of the astrocytes to clear Aβ plaques following their co-incubation with brain sections of 5×FAD mice, which contain Aβ plaques. Accordingly, 20 μm coronal frozen brain sections were prepared from 9-13-month-old 5×FAD mice using cryostat and placed on glass slides, 3-4 consecutive sections in each slide. The slides were kept at −80° C. until used. At the beginning of the experiment, the slices were incubated for 48 hr at 37° C. with apoE3 and apoE4 astrocytes (10^5 cells in 100 μl medium per slice) in the presence of 50 μM, or otherwise indicated concentrations, of the HTS hits. The slides were gently placed in round petri dishes with thick wet paper, surrounding the slides. PapPen was used to draw liquid repellent borders of the sections to avoid spillage of coating out of the slides. The slides were gently washed of all containing remains by placing them in PBS for 10 minutes, and were then fixated with 4% PFA for 10 minutes, followed by 0.1% Triton solution for 10 minutes. The slides were then incubated with blocking solution (8% Horse Serum, 0.3% Triton, 1 gr/ml BSA, 0.02% Sodium Azide in PBS) for 30 minutes after which they were immunohistochemically stained with primary anti-PAmyloid (6E10) antibody at a dilution of 1:750 in blocking solution for 1 hr at room temperature. This was then followed by washing (×5 with PBST) and incubation with the secondary antibody (Alexa Fluor® 488 donkey α-mouse IgG, A-21202 at dilution of 1:250 at room temperature for 45 minutes. Nuclei were stained with DAPI (Vektashield, Burlingame, Calif.; H-1200). Analysis of the Aβ plaque burden was performed as percentage of the area covered in plaques using the ImageJ software.
(i) Orthogonal assay which monitors the extent to which the hits can reverse the impaired ability of apoE4 astrocytes to digest Aβ senile plaques in vitro. The principle of this orthogonal assay is presented in FIGS. 7 & 8 [17], whereas the activity of the HTS hits in this assay is presented in FIG. 9.

apoE4 TR mice = assay: Intraventricular Alzet pump administration to apoE4 TR mice, 11 days; type: in vivo; settings: intraventricular pump 11 days, vs ACSF
Procedure: These experiments utilized the Alzet osmotic pump to administer labeled compounds #10 and N1 into the ventricles of apoE4 TR mice. The Alzet pumps administered 0.25 μl/hr of the compounds for 11 days. The reagents concentrations were […] for compounds #10 and N1, respectively, reaching estimated concentrations of 200 μM and 250 μM in the CSF. As control groups, apoE3 and apoE4 mice injected with artificial cerebrospinal fluid were used. Four groups, each containing 5 mice were used in the experiments. The total SDS levels in the different groups were measured. […] FIG. 16 depicts the results of the high molecular weight complexes indicating the increase in the apoE4 treated with compounds #10 and N1.
High AT180 corresponds to hyperphosphorylated tau which is pathological.

ECD1 of ABCA1 = target: T1, ECD1 of ABCA1 (Homo sapiens, UniProt O95477); assay: Microscale thermophoresis (MST) binding, label free protein; settings: unlabelled ECD1
T1 construct: The proteins used in these experiments were Extra-Cellular Domain 1 (ECD1) of ABCA1 and Extra-Cellular Domain 2 (ECD2); purchased Biomatick
T1 sequence (O95477 43-639 limits assumed): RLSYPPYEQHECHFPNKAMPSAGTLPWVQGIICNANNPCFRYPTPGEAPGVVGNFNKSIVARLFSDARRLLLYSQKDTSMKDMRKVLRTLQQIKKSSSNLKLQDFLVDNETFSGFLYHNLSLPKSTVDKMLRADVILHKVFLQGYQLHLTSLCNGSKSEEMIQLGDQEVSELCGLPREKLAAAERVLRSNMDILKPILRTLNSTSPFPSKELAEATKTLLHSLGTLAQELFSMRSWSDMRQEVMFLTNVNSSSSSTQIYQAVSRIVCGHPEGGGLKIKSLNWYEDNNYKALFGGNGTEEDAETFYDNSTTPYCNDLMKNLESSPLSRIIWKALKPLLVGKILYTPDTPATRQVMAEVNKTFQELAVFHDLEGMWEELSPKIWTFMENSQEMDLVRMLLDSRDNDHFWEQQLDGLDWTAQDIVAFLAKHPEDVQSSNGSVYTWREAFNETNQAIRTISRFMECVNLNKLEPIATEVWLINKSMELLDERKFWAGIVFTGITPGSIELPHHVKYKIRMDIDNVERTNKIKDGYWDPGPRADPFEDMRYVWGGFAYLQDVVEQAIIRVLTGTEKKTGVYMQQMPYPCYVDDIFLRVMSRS
Procedure: Microscale thermophoresis (MST) measurements. MST measurements of the binding of the HTS hits to the extracellular domain (ECD) of ABCA1 were performed by two complimentary methods utilizing either fluorescently labeled proteins or the endogenous fluorescence of unlabeled proteins. This was pursued as follows:
The experiments were performed with the purified extracellual domains 1 (ECD1) and 2 (ECD2) of ABCA1 [18]. Two complementary MST tests were performed, in which either the proteins were labeled with a fluorescence moiety or the endogenous fluorescence of the unlabeled proteins was monitored).

| Compound | Viability Rodent Astrocytes ([1]; Table 2) | Viability Rodent Astrocytes ([1]; Table 4) | EC50 (Human Astrocytes; Table 2) [µM] | pEC50 (Human Astrocytes) | Plaque digestion assay (50 μM) Rodent Astrocytes (Rodent Astrocytes; Table 2) [%] | Plaque digestion assay (50 μM) Rodent Astrocytes (Rodent Astrocytes; Table 4) [%] | Hippocampal phosphorylated tau (AT180) (apoE4 TR mice) | Levels of high molecular weight lipidated ApoE4 (native gels) (apoE4 TR mice) | Total hippocampal ApoE4 levels (total SDS levels) (apoE4 TR mice) | Binding to ECD1 (Label free MST) Amplitude (ECD1 of ABCA1) [a.u.] | pKd (ECD1 of ABCA1) |
| --- | --- | --- | --- | --- | --- | --- | --- | --- | --- | --- | --- |
| Cc1cc(C)c(/C=C2\C(=O)Nc3ccccc32)[nH]1 [Hit #10] | Normal | Normal | > 44.8 | < 4.35 | 182 | 182 | reversed the pathology | increase | reversed the effect | – | – |
| Clc1cc(N2CCOCC2)c2nonc2c1 [Hit #99] | – | – | – | < 4.35 | – | – | – | – | – | 24.15 | 4.23 |
| O=C(O)CSc1cc(Cl)c2nonc2c1[N+](=O)[O-] [Hit N1] | – | – | – | – | – | – | reversed the pathology | increase | reversed the effect | – | – |
